Assay results: patent US6455284B1, “Metabolically engineered E. coli for enhanced production of oxaloacetate-derived biochemicals” (The University of Georgia Research Foundation, Inc., priority 1998, dated 2002)
One block for each molecule: values may come before it.

Key:
[1] = biological target: R. etli pyruvate carboxylase (Rhizobium etli, UniProt Q2K340); experiment: Pyruvate carboxylase (PC) coupled enzyme assay (Payne and Morris) with E. coli cell extracts; type: biochemical; conditions: for effect of nicotinamide nucleotides on pyruvate carboxylase activity: cell-free crude extract from MG1655 pTrc99A-pyc, FIG. 9
Experimental: Pyruvate carboxylase (PC) enzyme assay. For pyruvate carboxylase activity measurements, 100 mL of mid-log phase culture was harvested by centrifugation at 7,000×g for 15 minutes at 4° C. and washed with 10 mL of 100 mM Tris-Cl (pH 8.0). The cells were then resuspended in 4 mL of 100 mM Tris-Cl (pH 8.0) and subsequently subjected to cell disruption by sonication. The cell debris was removed by centrifugation at 20,000×g for 15 minutes at 4° C. The pyruvate carboxylase activity was measured by the method of Payne and Morris (J. Gen. Microbiol., 59, 97-101 (1969)). In this assay the oxaloacetate produced by pyruvate carboxylase is converted to citrate by the addition of citrate synthase in the presence of acetyl CoA and 5,5-dithio-bis(2-nitro-benzoate) (DTNB) (Aldrich Chemical Co.); the homotetramer pyruvate carboxylase enzyme from R. etli requires acetyl coenzyme A for activation. The rate of increase in absorbence at 412 nm due to the presence of CoA-dependent formation of the 5-thio-2-nitrobenzoate was monitored, first after the addition of pyruvate and then after the addition of ATP. The difference between these two rates was taken as the ATP-dependent pyruvate carboxylase activity. The concentration of reaction components per milliliter of mixture was as follows: 100 mM Tris-Cl (pH 8.0), 5 mM MgCl2.H2O, 50 mM Na HCO3, 0.1 mM acetyl CoA, 0.25 mM DTNB, and 5 units (U) of citrate synthase. Pyruvate, ATP, ADP, or aspartate, were added as specified in the Results section, below. The reaction was started by adding 50 μl of cell extract. One unit of pyruvate carboxylase activity corresponds to the formation of 1 μmol of 5-thio-2-nitrobenzoate per mg of protein per minute. All enzyme assays were performed in triplicate and a standard error of less then 10% was observed. The total protein in the cell extracts was determined by the Lowry method (O. Lowry et al., J. Biol. Chem., 193, 265-275 (1951)).
R. etli pyruvate carboxylase can convert pyruvate to oxaloacetate in E. coli. To confirm that the expressed pyruvate carboxylase protein was enzymatically active in E. coli, the coupled enzyme assay developed by Payne and Morris was employed to assess pyruvate carboxylase activity (J. Payne et al., J. Gen. Microbiol., 59, 97-101 (1969)). Cell extracts containing the induced pUC18-pyc construct (MG1655 pUC18-pyc) were tested for pyruvate carboxylase activity using varying amounts of pyruvate, and compared to controls containing the pUC18 construct (MG1655 pUC18). ATP was added at a final concentration of 5 mM to the reaction mixture and pyruvate carboxylase activity was determined in the presence of increasing amounts of pyruvate. […] This value is in excellent agreement with other pyruvate carboxylase enzymes that have been studied (H. Feir et al., Can. J. Biochem., 47, 698-710 (1969); H. Modak et al., Microbiol., 141, 2619-2628 (1995); M. Scrutton et al., Arch. Biochem. Biophys., 164, 641-654 (1974)).
It is well documented that the α4 pyruvate carboxylase enzymes can be inhibited by either aspartate or adenosine diphosphate (ADP). Aspartate is the first amino acid that is synthesized from oxaloacetate and ADP is liberated when pyruvate carboxylase converts pyruvate to oxaloacetate. Pyruvate carboxylase activity in the presence of each of these inhibitors was evaluated using extracts of MG1655 cells that contained the pUC18-pyc construct. The effect of aspartate was analyzed by adding ATP and pyruvate to the reaction mixture to final concentrations of 5 mM and 6 mM, respectively, then determining pyruvate carboxylase activity in the presence of increasing amounts of aspartate. […] As expected, the pyruvate carboxylase activity was inhibited by aspartate and the specific activity decreased to approximately 43% in the presence of 8 mM aspartate. The effect of ADP was analyzed by adding pyruvate to the reaction mixture to a final concentration of 5 mM, then determining pyruvate carboxylase activity in the presence of increasing amounts of […]. […]

[2] = tested on: biotinylated R. etli pyruvate carboxylase expressed in E. coli; experiment: Western blot of in vivo biotinylated pyruvate carboxylase in MG1655 pUC18-pyc cells grown with varying biotin; type: cell-based; conditions: M9 media, 37° C., mid-log
Experimental: Protein gels and Western blotting. Heat-denatured cell extracts were separated on 10% SDS-PAGE gels as per Altman et. al. (J. Bact., 155, 1130-1137 (1983)) and Western blots were carried out as per Carroll and Gherardini (Infect. Immun., 64, 392-398 (1996)). ALS225 E. coli cells containing either pUC18 or pUC18-pyc were grown to mid-log in rich media at 37° C. both in the presence and absence of IPTG. Because ALS225 contains lacIq1 on the F′, significant induction of the pUC18-pyc construct should not occur unless IPTG is added. Protein extracts were prepared, subjected to SDS PAGE, and Western blotted. Proteins which had been biotinylated in vivo were then detected using the Sigma-Blot protein detection kit (Sigma Chemical Corp., St. Louis, Mo.). The instructions of the manufacturer were followed except that during the development of the western blots the protein biotinylation step was omitted, thus allowing for the detection of only those proteins which had been biotinylated in vivo.
Effects of biotin and biotin holoenzyme synthase on the expression of biotinylated R. etli pyruvate carboxylase in E. coli. […] Proteins which had been biotinylated in vivo were then detected using the Sigma-Blot protein detection kit, as described above. […] The amount of biotinylated pyruvate carboxylase that was present in each sample was quantitated using a Stratagene Eagle Eye II Still Video. […]

[3] = substrate: CC(=O)C(=O)O; experiment: Pyruvate carboxylase (PC) coupled enzyme assay (Payne and Morris) with E. coli cell extracts; type: biochemical, R. etli; conditions: other: MG1655 pUC18-pyc extract; ATP 5 mM; Lineweaver-Burke plot; pH 8.0
Experimental: Pyruvate carboxylase (PC) enzyme assay. For pyruvate carboxylase activity measurements, 100 mL of mid-log phase culture was harvested by centrifugation at 7,000×g for 15 minutes at 4° C. and washed with 10 mL of 100 mM Tris-Cl (pH 8.0). The cells were then resuspended in 4 mL of 100 mM Tris-Cl (pH 8.0) and subsequently subjected to cell disruption by sonication. The cell debris was removed by centrifugation at 20,000×g for 15 minutes at 4° C. The pyruvate carboxylase activity was measured by the method of Payne and Morris (J. Gen. Microbiol., 59, 97-101 (1969)). […] The rate of increase in absorbence at 412 nm due to the presence of CoA-dependent formation of the 5-thio-2-nitrobenzoate was monitored, first after the addition of pyruvate and then after the addition of ATP. […] The total protein in the cell extracts was determined by the Lowry method (O. Lowry et al., J. Biol. Chem., 193, 265-275 (1951)).
R. etli pyruvate carboxylase can convert pyruvate to oxaloacetate in E. coli. […] ATP was added at a final concentration of 5 mM to the reaction mixture and pyruvate carboxylase activity was determined in the presence of increasing amounts of pyruvate. […]

Molecule: Nc1ncnc2c1ncn2[C@@H]1O[C@H](COP(=O)(O)OP(=O)(O)O)[C@@H](O)[C@H]1O [ADP, adenosine diphosphate]
- Ki [1]: 142 µM
- mode of inhibition of pyruvate carboxylase ([1]; MG1655 pUC18-pyc extract, pyruvate 5 mM, increasing ATP): competitive inhibitor of ATP

Molecule: Nc1ncnc2c1ncn2[C@@H]1O[C@H](COP(=O)(O)OP(=O)(O)OP(=O)(O)O)[C@@H](O)[C@H]1O [ATP]
- Km ([1]; MG1655 pUC18-pyc extract, pyruvate 5 mM, Lineweaver-Burke plot, read-out: saturation constant (Km) for expressed pyruvate carboxylase with respect to ATP): 193 µM

- effect of nicotinamide nucleotides on pyruvate carboxylase activity [1]: did not
Molecule: NC(=O)c1ccc[n+]([C@@H]2O[C@H](COP(=O)([O-])OP(=O)(O)OC[C@H]3O[C@@H](n4cnc5c(N)ncnc54)[C@H](O)[C@@H]3O)[C@@H](O)[C@H]2O)c1 [NAD+]

Molecule: NC(=O)C1=CN([C@@H]2O[C@H](COP(=O)(O)OP(=O)(O)OC[C@H]3O[C@@H](n4cnc5c(N)ncnc54)[C@H](O)[C@@H]3O)[C@@H](O)[C@H]2O)C=CC1 [NADH, reduced nicotinamide adenine dinucleotide]
- effect of nicotinamide nucleotides on pyruvate carboxylase activity [1]: inhibited pyruvate carboxylase

- effect of nicotinamide nucleotides on pyruvate carboxylase activity [1]: did not
Molecule: NC(=O)c1ccc[n+]([C@@H]2O[C@H](COP(=O)([O-])OP(=O)(O)OC[C@H]3O[C@@H](n4cnc5c(N)ncnc54)[C@H](OP(=O)(O)O)[C@@H]3O)[C@@H](O)[C@H]2O)c1 [NADP+]

- effect of nicotinamide nucleotides on pyruvate carboxylase activity [1]: did not
Molecule: NC(=O)C1=CN([C@@H]2O[C@H](COP(=O)(O)OP(=O)(O)OC[C@H]3O[C@@H](n4cnc5c(N)ncnc54)[C@H](OP(=O)(O)O)[C@@H]3O)[C@@H](O)[C@H]2O)C=CC1 [NADPH]

Molecule: N[C@@H](CC(=O)O)C(=O)O [aspartate]
- remaining activity at 8000 µM ([1]; read-out: pyruvate carboxylase specific activity remaining): ~43%

Molecule: O=C(O)CCCC[C@@H]1SC[C@@H]2NC(=O)N[C@@H]21 [biotin]
- biotin concentration sufficient to biotinylate all of the expressed pyruvate carboxylase [2]: 50 ng/mL

B1: R. etli pyruvate carboxylase (Rhizobium etli CFN 42) (protein)
chain: MPISKILVANRSEIAIRVFRAANELGIKTVAIWAEEDKLALHRFKADESYQVGRGPHLARDLGPIESYLSIDEVIRVAKLSGADAIHPGYGLLSESPEFVDACNKAGIIFIGPKADTMRQLGNKVAARNLAISVGVPVVPATEPLPDDMAEVAKMAAAIGYPVMLKASWGGGGRGMRVIRSEADLAKEVTEAKREAMAAFGKDEVYLEKLVERARHVESQILGDTHGNVVHLFERDCSVQRRNQKVVERAPAPYLSEAQRQELAAYSLKIAGATNYIGAGTVEYLMDADTGKFYFIEVNPRIQVEHTVTEVVTGIDIVKAQIHILDGAAIGTPQSGVPNQEDIRLNGHALQCRVTTEDPEHNFIPDYGRITAYRSASGFGIRLDGGTSYSGAIITRYYDPLLVKVTAWAPNPLEAISRMDRALREFRIRGVATNLTFLEAIIGHPKFRDNSYTTRFIDTTPELFQQVKRQDRATKLLTYLADVTVNGHPEAKDRPKPLENAARPVVPYANGNGVKDGTKQLLDTLGPKKFGEWMRNEKRVLLTDTTMRDGHQSLLATRMRTYDIARIAGTYSHALPNLLSLECWGGATFDVSMRFLTEDPWERLALIREGAPNLLLQMLLRGANGVGYTNYPDNVVKYFVRQAAKGGIDLFRVFDCLNWVENMRVSMDAIAEENKLCEAAICYTGDILNSARPKYDLKYYTNLAVELEKAGAHIIAVKDMAGLLKPAAAKVLFKALREATGLPIHFHTHDTSGIAAATVLAAVEAGVDAVDAAMDALSGNTSQPCLGSIVEALSGSERDPGLDPAWIRRISFYWEAVRNQYAAFESDLKGPASEVYLHEMPGGQFTNLKEQARSLGLETRWHQVAQAYADANQMFGDIVKVTPSSKVVGDMALMMVSQDLTVADVVSPDREVSFPESVVSMLKGDLGQPPSGWPEALQKKALKGEKPYTVRPGSLLKEADLDAERKVIEKKLEREVSDFEFASYLMYPKVFTDFALASDTYGPVSVLPTPAYFYGLADGEELFADIEKGKTLVIVNQAVSATDSQGMVTVFFELNGQPRRIKVPDRAHGATGAAVRRKAEPGNAAHVGAPMPGVISRVFVSSGQAVNAGDVLVSIEAMKMETAIHAEKDGTIAEVLVKAGDQIDAKDLLAVYGG
- Km [3]: 249 µM
